The values below come from US10570184B2, “GLP-1/glucagon receptor co-agonists for medical use” (Novo Nordisk A/S, priority 2014, dated 2020).

The structures appear in SMILES notation. Starred links: 1 amine or outer side, 2 acyl side, 3 side chain; linkers in the order of their positions; H or OH if unused. Non-standard residues stand in square brackets, D forms with d. Residues, ends and D or L forms follow the SMILES beside them. Groups on a side chain read outwards from the residue. *: point of attachment. C18 diacid = O=C(O)CCCCCCCCCCCCCCCCC(=O)*; γGlu = O=C(O)[C@H](CCC(=O)[*:2])N[*:1]; AEEA = NCCOCCOCC(=O)O; Aib = CC(C)(N)C(=O)O

The target of experiment [1] is T1, human GLP-1 receptor (Homo sapiens, UniProt P43220).
T1 construct: expressed in transfected cells; host or cells: membranes of BHK cells (parent BHKTS13), clone FCW467-12A
T1 sequence (P43220 24-463): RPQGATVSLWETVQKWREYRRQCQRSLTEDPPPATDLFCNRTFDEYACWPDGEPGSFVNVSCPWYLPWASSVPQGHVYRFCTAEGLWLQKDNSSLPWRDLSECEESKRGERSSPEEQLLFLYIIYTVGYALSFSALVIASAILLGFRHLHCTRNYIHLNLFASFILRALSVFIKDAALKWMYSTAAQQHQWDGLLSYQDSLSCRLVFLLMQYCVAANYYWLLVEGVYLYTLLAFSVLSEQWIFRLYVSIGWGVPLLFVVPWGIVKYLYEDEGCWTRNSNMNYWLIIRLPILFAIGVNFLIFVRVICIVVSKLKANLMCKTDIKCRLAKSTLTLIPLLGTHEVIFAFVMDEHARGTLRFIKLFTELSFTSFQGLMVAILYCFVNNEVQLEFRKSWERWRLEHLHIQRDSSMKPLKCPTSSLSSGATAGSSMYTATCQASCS
Kind of experiment: Assay (II)(a) GLP-1 receptor binding, 125I-GLP-1 displacement SPA on BHK membranes. The settings on record: without presence of serum albumin; read-out: GLP-1R IC50 (nM) [Assay (II)(a)]. The procedure:
The GLP-1 receptor (GLP-1R) binding is a measure of affinity of a compound for the human GLP-1 receptor. The receptor binding of each compound to the human GLP-1 receptor was measured in a displacement binding assay. In this type of assay a labelled ligand (in this case 125I-GLP-1) is bound to the receptor. Each derivative was added in a series of concentrations to isolated membranes containing the human GLP-1 receptor and displacement of the labelled ligand was monitored. The receptor binding was reported as the concentration at which half of the labelled ligand was displaced from the receptor, the IC50 value. In order to test the binding of the derivatives to albumin, the assay may be performed in a very low concentration of serum albumin (max. 0.001% final assay concentration) as well as in the presence of a (considerably) higher concentration of serum albumin (2.0% final assay concentration). An increase of the IC50 value, in the presence of serum albumin indicates an affinity to serum albumin and represents a method to predict a protracted pharmacokinetic profile of the test substance in animal models. The following chemicals were used in the assay: DMEM w/o phenol red (Gibco 11880-028), Pen/strep (Invitrogen 15140-122), G418 (Invitrogen 10131-027), 1 M Hepes (Gibco 15630), EDTA (Invitrogen 15575-038), PBS (Invitrogen 14190-094), fetal calf serum (Invitrogen 16140-071), EGTA, MgCl2 (Merck 1.05832.1000), Tween 20 (Amresco 0850C335), SPA particles (wheat germ agglutinin (WGA) SPA beads, Perkin Elmer RPNQ0001), [125I]-GLP-1]-(7-36)NH2 (produced in-house), OptiPlate™-96 (Perkin Elmer). Buffer 1 consisted of 20 mM Na-HEPES plus 10 mM EDTA and pH was adjusted to 7.4. Buffer 2 consisted of 20 mM Na-HEPES plus 0.1 mM EDTA and pH was adjusted to 7.4. Assay buffer consisted of 50 mM HEPES supplemented with 5 mM EGTA, 5 mM MgCl2, 0.005% Tween 20 and pH was adjusted to 7.4. The cells used in this assay (clone FCW467-12A) were BHK cells with BHKTS13 as a parent cell line. The cells express the human GLP-1 receptor. The cells were grown at 5% CO2 in DMEM, 10% fetal calf serum, 1% Pen/Strep (Penicillin/Streptomycin) and 1.0 mg/ml of the selection marker G418. To make a membrane preparation the cells were grown to approximately 80% confluence. The cells were washed twice in phosphate-buffered saline and harvested. The cells were pelleted using a brief centrifugation and the cell pellet was kept on ice. The cell pellet was homogenised with ULTRA-THURRAX dispersing instrument for 20-30 seconds in a suitable amount of buffer 1 (e.g., 10 ml). The homogenate was centrifuged for 15 minutes. The pellet was re-suspended (homogenised) in 10 ml buffer 2 and centrifuged. This step was repeated once more. The resulting pellet was re-suspended in buffer 2 and the protein concentration was determined. The membranes were aliquoted and stored at minus 80° C. • 1. For the receptor binding assay, 50 μl of the assay buffer was added to each well of an assay plate. • 2. Test compounds were serially diluted to give the following concentrations: 8×10EE-7 M, 8×10EE-8 M, 8×10EE-9 M, 8×10EE-10 M, 8×10EE-11 M, 8×10EE-12 M and 8×10EE-13 M. Twenty-five μl were added to appropriate wells in the assay plate. • 3. Cell membrane aliquots were thawed and diluted to their working concentration. Fifty μl were added to each well in the assay plate. • 4. WGA SPA beads were suspended in assay buffer at 20 mg/ml. The suspension was diluted to 10 mg/ml in assay buffer just prior to addition to the assay plate. Fifty μl were added to each well in the assay plate. • 5. The incubation was started by adding 25 μl of […] solution of [125I]-GLP-1]-(7-36)NH2 to each well of the assay plate. A 25 μl aliquot was reserved for measuring total counts/well. • 6. The assay plate was incubated for 2 h at 30° C. • 7. The assay plate was centrifuged for 10 min. • 8. The assay plate was read in a Perkin Elmer TopCount NXT instrument. […]

Experiment [2] addresses T1, human GLP-1 receptor. Kind of experiment: Assay (I)(a) GLP-1 receptor activation, CRE luciferase reporter gene assay in BHK cells. It is filed as cell-based. To be noted: without presence of serum albumin; read-out: GLP-1R EC50 (pM) [Assay (I)(a)]. The procedure:
The purpose of this example was to test the activity or potency, of the glucagon derivatives of the invention, in vitro. The in vitro potency is the measure of human GLP-1 receptor (GLP-1R) or glucagon receptor (glucagonR) activation, respectively, in a whole cell assay. In vitro potency was determined by measuring the response of human GLP-1 or glucagon receptor, respectively, in a reporter gene assay. The assay was performed in a stably transfected BHK cell line that expresses either the human GLP-1 receptor or the human glucagon receptor and contains the DNA for the cAMP response element (CRE) coupled to a promoter and the gene for firefly luciferase (CRE luciferase). […] When assay incubation was completed, the luciferase substrate (luciferin) was added and the enzyme converted luciferin to oxyluciferin and produces bioluminescence. The luminescence was measured as the readout for the assay. The cells used in this assay (clone FCW467-12A/KZ10-1) were BHK cells with BHKTS13 as a parent cell line. The cells were derived from a clone (FCW467-12A) that expresses the human GLP-1 receptor and were established by further transfection with CRE luciferase to obtain the current clone. The cells were cultured at 5% CO2 in DMEM medium with 10% FBS, 1×GlutaMAX, 1 mg/ml G418, 240 nM MTX (methotrexate) and 1% pen/strep (penicillin/streptomycin). They were aliquoted and stored in liquid nitrogen. Before each assay, an aliquot was taken up and washed three times in PBS before being suspended at the desired concentration in assay medium. For 96-well plates the suspension was made to give a final concentration of 5×10EE3 cells/well. The following chemicals were used in the assay: Pluronic F-68 (10%) (Gibco 2404), ovalbumin (Sigma A5503), DMEM w/o phenol red (Gibco 11880-028), 1 M Hepes (Gibco 15630), Glutamax 100× (Gibco 35050) and steadylite plus (PerkinElmer 6016757). Assay Medium consisted of DMEM w/o phenol red, 10 mM Hepes, 1× GlutaMAX, 2% Ovalbumin and 0.2% Pluronic F-68. Cell stocks were thawed in a 37° C. water bath. Cells were washed three times in PBS. The cells were counted and adjusted to 5×10EE3 cells/50 μl (1×10EE5 cells/ml) in Assay Medium. A 50 μl aliquot of cells was transferred to each well in the assay plate. Stocks of the test compounds and reference compounds were diluted to a concentration of […] in Assay Medium. Compounds were diluted 10-fold to give the following concentrations: 2×10EE-6 M, 2×10EE-7 M, 2×10EE-8 M; 2×10EE-9 M, 2×10EE-10 M, 2×10EE-11 M, 2×10EE-12 M and 2×10EE-13 M. For each compound a blank assay medium control was also included. A 50 μl aliquot of compound or blank was transferred from the dilution plate to the assay plate. Compounds were tested at the following final concentrations: 1×10EE-6 M, 1×10EE-7 M, 1×10EE-8 M; 1×10EE-9 M, 1×10EE-10 M, 1×10EE-11 M and 1×10EE-12 M and 1×10EE-13 M. The assay plate was incubated for 3 h in a 5% CO2 incubator at 37° C. The assay plate was removed from the incubator and allowed to stand at room temperature for 15 min. A 100 μl aliquot of steadylite plus reagent was added to each well of the assay plate (reagent is light sensitive). Each assay plate was covered with aluminum foil to protect it from light and shaken for 30 min at room temperature. Each assay plate was read in a Perkin Elmer TopCount NXT instrument. The data from the TopCount instrument was transferred to GraphPad Prism software. The software performed a non-linear regression (log(agonist) vs response-Variable slope (four parameter)). EC50 values were calculated by the software and reported in pM.
Background: A reporter such as luciferase makes a cellular process visible.

What is called IC50 is the concentration that gives 50% inhibition. The EC50 is the concentration needed to bring the measured effect to its halfway point. Consider `CC[C@H](C)[C@H](NC(=O)[C@H](CC(C)C)NC(=O)[C@H](Cc1c[nH]c2ccccc12)NC(=O)[C@H](CCCCNC(=O)COCCOCCNC(=O)COCCOCCNC(=O)CC[C@H](NC(=O)CC[C@H](NC(=O)CC[C@H](NC(=O)CCCCCCCCCCCCCCCCC(=O)O)C(=O)O)C(=O)O)C(=O)O)NC(=O)[C@@H](NC(=O)[C@H](Cc1ccccc1)NC(=O)[C@H](CCC(=O)O)NC(=O)[C@H](CCCNC(=N)N)NC(=O)[C@H](C)NC(=O)[C@H](CCCNC(=N)N)NC(=O)[C@H](CCCCN)NC(=O)[C@H](C)NC(=O)[C@H](CC(=O)O)NC(=O)[C@H](CC(C)C)NC(=O)[C@H](Cc1ccc(O)cc1)NC(=O)[C@H](CCCCN)NC(=O)[C@H](CO)NC(=O)[C@H](Cc1ccc(O)cc1)NC(=O)[C@H](CC(=O)O)NC(=O)[C@H](CO)NC(=O)[C@@H](NC(=O)[C@H](Cc1ccccc1)NC(=O)[C@@H](NC(=O)CNC(=O)[C@H](CCC(N)=O)NC(=O)C(C)(C)NC(=O)[C@@H](N)Cc1c[nH]cn1)[C@@H](C)O)[C@@H](C)O)C(C)C)C(=O)N[C@@H](CO)C(=O)N[C@H](C(N)=O)[C@@H](C)O` [Chem. 2, N^ε24-[2-[2-[2-[[2-[2-[2-[[(4S)-4-carboxy-4-[[(4S)-4-carboxy-4-[[(4S)-4-carboxy-4-(17-carboxyheptadecanoylamino)butanoyl]amino]butanoyl]amino]butanoyl]amino]ethoxy]ethoxy]acetyl]amino]ethoxy]ethoxy]acetyl]-[Aib2,Ala16,Lys17,Arg20,Glu21,Lys24,Ile27,Ser28]-Glucagon amide] (H-H[Aib]QGTFTSDYSKYLDAKRAREFVK([AEEA-AEEA-γGlu-γGlu-γGlu-C18 diacid])WLIST-NH2; N-terminus assumed), for which, on human GLP-1 receptor [1], the IC50 was 0.3 nM. The EC50 at human GLP-1 receptor [2] turned out to be 2 pM.

As to `CC[C@H](C)[C@H](NC(=O)[C@H](CC(C)C)NC(=O)[C@H](Cc1c[nH]c2ccccc12)NC(=O)[C@H](CCC(N)=O)NC(=O)[C@@H](NC(=O)[C@H](Cc1ccccc1)NC(=O)[C@H](CC(=O)O)NC(=O)[C@H](CCCNC(=N)N)NC(=O)[C@H](C)NC(=O)[C@H](CCCNC(=N)N)NC(=O)[C@H](CCCNC(=N)N)NC(=O)[C@H](CO)NC(=O)[C@H](CCC(=O)O)NC(=O)[C@H](CC(C)C)NC(=O)[C@H](Cc1ccc(O)cc1)NC(=O)[C@H](CCCCN)NC(=O)[C@H](CO)NC(=O)[C@H](CC(C)C)NC(=O)[C@H](CC(=O)O)NC(=O)[C@H](CO)NC(=O)[C@@H](NC(=O)[C@H](Cc1ccccc1)NC(=O)[C@@H](NC(=O)CNC(=O)[C@H](CCC(N)=O)NC(=O)C(C)(C)NC(=O)[C@@H](N)Cc1c[nH]cn1)[C@@H](C)O)[C@@H](C)O)C(C)C)C(=O)N[C@@H](CCCCNC(=O)COCCOCCNC(=O)COCCOCCNC(=O)CC[C@H](NC(=O)CC[C@H](NC(=O)CC[C@H](NC(=O)CCCCCCCCCCCCCCCCC(=O)O)C(=O)O)C(=O)O)C(=O)O)C(=O)N[C@H](C(N)=O)[C@@H](C)O` [Chem. 3, N^ε28-[2-[2-[2-[[2-[2-[2-[[(4S)-4-carboxy-4-[[(4S)-4-carboxy-4-[[(4S)-4-carboxy-4-(17-carboxyheptadecanoylamino)butanoyl]amino]butanoyl]amino]butanoyl]amino]ethoxy]ethoxy]acetyl]amino]ethoxy]ethoxy]acetyl]-[Aib2,Leu10,Glu15,Arg20,Ile27,Lys28]-Glucagon amide] (H-H[Aib]QGTFTSDLSKYLESRRARDFVQWLIK([AEEA-AEEA-γGlu-γGlu-γGlu-C18 diacid])T-NH2; N-terminus assumed), the IC50 on human GLP-1 receptor [1] is 0.1 nM. Further, the EC50 on human GLP-1 receptor [2] came to 2 pM.
